In ChEMBL document CHEMBL1201862, “PubChem BioAssay data set” (2004):
The source made the active and inactive calls.

What was measured:
[1] = target: T1, Heat shock factor protein 1 (Mus musculus, UniProt P38532); test: decrease of HSF1-responsive luciferase luminescence – cell-based, NIH3T3, dose retest, confirmation (AID 2382); type: functional;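 note: NIH3T3 fibroblasts with HSF1-driven luciferase reporter stressed by proteasome inhibitor MG132; luminescence from HSF1-driven luciferase expression after 8 hours of MG132 stress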
T1 sequence (P38532 whole entry): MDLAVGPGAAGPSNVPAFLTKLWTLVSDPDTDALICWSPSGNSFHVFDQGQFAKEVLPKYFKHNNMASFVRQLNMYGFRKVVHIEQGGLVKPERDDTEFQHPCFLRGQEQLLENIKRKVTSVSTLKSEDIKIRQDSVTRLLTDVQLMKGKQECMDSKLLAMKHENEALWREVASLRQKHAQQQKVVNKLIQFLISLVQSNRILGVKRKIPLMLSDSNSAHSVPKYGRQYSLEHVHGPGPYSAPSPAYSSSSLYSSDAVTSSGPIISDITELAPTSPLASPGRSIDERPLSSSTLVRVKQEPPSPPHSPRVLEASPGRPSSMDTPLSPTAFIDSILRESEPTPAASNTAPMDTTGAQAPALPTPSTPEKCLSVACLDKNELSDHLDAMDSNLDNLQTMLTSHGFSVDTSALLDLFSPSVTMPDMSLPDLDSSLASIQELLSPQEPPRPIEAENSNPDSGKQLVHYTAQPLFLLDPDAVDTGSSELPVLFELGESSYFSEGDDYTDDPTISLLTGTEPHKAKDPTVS

Streptokinase A = target: T2, Streptokinase A (Streptococcus pyogenes serotype M1, UniProt P10520); test: viability-normalized secreted streptokinase activity reduction – plasminogen activation absorbance, OD405, dose response (AID 1914); type: functional, Streptococcus pyogenes M1 GAS;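 note: secreted streptokinase activity via plasminogen activation per viability signal from cell pellet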
T2 sequence (P10520 whole entry): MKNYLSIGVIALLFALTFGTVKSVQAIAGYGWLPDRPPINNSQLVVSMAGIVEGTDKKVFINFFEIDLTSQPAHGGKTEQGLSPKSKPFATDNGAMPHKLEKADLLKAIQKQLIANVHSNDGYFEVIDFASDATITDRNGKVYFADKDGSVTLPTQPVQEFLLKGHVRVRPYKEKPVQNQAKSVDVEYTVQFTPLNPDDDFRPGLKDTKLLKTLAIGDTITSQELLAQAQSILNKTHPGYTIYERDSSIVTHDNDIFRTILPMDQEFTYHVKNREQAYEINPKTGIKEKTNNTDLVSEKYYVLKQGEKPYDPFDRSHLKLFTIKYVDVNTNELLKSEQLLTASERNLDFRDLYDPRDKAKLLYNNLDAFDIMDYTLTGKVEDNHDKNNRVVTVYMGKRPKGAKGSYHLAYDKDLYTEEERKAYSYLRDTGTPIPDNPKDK

[2] = target: Induced myeloid leukemia cell differentiation protein Mcl-1 (Homo sapiens, UniProt Q07820); type: functional
Sequence of Induced myeloid leukemia cell differentiation protein Mcl-1 (Q07820 whole entry): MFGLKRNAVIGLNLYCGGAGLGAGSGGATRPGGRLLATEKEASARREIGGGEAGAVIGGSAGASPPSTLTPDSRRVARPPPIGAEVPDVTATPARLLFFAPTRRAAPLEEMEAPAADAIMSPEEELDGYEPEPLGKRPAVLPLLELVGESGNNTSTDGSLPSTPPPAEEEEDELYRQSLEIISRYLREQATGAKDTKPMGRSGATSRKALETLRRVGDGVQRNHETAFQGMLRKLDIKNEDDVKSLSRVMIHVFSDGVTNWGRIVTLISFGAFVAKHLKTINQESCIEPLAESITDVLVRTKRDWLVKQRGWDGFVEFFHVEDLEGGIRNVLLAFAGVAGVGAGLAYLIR

[3] = target: C-C chemokine receptor type 6 (Homo sapiens, UniProt P51684); test: antagonism of CCR6 beta-arrestin recruitment – cell-based, luminescent beta-arrestin readout, dose response (AID 504728); type: functional
Sequence of C-C chemokine receptor type 6 (P51684 whole entry): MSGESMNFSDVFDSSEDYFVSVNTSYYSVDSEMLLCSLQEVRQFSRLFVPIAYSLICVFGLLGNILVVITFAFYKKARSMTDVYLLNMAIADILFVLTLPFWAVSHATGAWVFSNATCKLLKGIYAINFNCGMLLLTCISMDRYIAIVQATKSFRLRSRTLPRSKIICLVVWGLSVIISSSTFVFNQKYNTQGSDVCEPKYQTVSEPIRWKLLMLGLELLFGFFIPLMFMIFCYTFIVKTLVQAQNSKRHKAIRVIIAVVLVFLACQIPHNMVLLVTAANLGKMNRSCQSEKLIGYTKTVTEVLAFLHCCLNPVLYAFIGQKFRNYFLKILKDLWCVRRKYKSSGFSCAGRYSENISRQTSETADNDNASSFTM

Beta-galactosidase = Beta-galactosidase (Escherichia coli, UniProt Q8VNN2); test: detection-enzyme interference by beta-gal modulators – biochemical, E. coli enzyme, set 3, artefact control for CCR6 antagonist project, dose response (AID 504712); type: functional
Sequence of Beta-galactosidase (Q8VNN2 whole entry): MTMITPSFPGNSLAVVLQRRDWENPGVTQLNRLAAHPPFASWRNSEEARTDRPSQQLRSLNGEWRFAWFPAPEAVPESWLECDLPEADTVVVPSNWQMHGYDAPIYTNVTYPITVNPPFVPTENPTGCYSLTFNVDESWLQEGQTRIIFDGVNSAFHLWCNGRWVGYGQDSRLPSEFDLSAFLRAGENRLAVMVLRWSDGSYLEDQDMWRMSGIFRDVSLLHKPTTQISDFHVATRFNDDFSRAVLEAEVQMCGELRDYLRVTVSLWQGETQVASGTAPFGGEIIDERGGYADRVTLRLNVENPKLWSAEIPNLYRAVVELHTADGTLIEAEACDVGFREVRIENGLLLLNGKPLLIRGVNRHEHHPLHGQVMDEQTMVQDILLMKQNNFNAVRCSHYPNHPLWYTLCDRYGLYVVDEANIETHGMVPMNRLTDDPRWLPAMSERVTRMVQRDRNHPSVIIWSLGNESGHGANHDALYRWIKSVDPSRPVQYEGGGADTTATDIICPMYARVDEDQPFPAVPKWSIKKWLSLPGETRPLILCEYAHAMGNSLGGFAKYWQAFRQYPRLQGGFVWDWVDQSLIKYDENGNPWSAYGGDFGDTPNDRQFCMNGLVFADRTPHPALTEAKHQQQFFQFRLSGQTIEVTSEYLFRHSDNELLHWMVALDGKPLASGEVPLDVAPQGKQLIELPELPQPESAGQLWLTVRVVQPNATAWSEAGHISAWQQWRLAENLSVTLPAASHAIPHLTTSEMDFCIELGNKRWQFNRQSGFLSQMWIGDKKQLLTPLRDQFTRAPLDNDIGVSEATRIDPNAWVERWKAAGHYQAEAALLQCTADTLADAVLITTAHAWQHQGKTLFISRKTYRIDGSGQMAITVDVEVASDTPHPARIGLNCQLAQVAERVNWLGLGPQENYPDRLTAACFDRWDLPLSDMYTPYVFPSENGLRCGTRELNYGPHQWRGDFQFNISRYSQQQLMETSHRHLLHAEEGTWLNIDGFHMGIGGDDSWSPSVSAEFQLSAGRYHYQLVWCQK

[4] = target: T3, Replicative DNA helicase DnaB (Mycobacterium tuberculosis, UniProt P9WMR3); test: DnaB intein splicing inhibitors, dose response, biochemical, cell-free fluorescence (AID 449749); type: functional
T3 sequence (P9WMR3 whole entry): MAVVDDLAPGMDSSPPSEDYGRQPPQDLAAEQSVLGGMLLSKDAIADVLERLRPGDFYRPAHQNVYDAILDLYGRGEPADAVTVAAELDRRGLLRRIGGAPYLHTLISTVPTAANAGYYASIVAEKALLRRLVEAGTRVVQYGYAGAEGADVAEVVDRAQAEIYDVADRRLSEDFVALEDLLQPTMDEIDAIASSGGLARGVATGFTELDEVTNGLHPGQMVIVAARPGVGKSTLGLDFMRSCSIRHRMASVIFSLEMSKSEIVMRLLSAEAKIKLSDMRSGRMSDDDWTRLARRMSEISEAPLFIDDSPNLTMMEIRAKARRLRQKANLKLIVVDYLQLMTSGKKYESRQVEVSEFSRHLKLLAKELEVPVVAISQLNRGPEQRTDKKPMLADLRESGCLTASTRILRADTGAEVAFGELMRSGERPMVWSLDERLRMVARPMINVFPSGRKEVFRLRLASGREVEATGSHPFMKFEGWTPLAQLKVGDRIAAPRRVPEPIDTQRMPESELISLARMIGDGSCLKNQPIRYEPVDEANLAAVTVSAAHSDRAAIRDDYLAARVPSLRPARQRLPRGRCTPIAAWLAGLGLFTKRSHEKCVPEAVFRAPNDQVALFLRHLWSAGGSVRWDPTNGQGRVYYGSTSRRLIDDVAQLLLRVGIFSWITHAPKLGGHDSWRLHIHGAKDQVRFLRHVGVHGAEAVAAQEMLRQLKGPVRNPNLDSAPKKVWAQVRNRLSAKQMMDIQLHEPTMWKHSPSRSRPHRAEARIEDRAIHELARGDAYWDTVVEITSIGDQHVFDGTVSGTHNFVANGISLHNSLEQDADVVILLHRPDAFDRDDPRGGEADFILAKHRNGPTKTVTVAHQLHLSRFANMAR

Protein RecA = target: T4, Protein RecA (Mycobacterium tuberculosis, UniProt P9WHJ3); test: Fluorescence Cell-Free Homogeneous Dose Retest to Identify Inhibitors of RecA-Intein Splicing Activity. [Related pubchem assays (depositor defined):AID2097, AID2223, AID489010, AID492950]; type: functional
T4 sequence (P9WHJ3 whole entry): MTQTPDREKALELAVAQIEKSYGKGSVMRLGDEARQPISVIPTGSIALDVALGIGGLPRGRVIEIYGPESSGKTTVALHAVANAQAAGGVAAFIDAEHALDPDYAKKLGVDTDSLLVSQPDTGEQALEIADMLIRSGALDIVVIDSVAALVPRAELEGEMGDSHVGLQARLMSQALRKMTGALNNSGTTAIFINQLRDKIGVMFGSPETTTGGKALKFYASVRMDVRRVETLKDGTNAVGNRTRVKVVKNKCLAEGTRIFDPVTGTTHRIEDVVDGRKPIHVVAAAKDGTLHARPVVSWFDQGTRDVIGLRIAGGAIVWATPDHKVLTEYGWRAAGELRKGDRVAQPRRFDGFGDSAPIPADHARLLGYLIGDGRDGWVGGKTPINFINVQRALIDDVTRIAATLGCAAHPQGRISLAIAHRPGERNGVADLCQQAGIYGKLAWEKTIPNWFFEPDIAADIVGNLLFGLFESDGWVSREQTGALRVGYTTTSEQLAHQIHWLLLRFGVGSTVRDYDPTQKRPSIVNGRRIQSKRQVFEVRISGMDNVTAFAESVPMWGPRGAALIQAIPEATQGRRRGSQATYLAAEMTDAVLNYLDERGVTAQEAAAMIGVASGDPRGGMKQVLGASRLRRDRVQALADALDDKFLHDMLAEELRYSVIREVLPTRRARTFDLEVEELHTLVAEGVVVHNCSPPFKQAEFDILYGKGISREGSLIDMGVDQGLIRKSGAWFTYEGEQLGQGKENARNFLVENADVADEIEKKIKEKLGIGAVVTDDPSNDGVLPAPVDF

[5] = target: Multidrug resistance protein CDR2 (Candida albicans (strain SC5314 / ATCC MYA-2876) (Yeast), UniProt P78595); test: inhibition of Nile Red efflux via Candida CDR2 – S. cerevisiae AD1-8u, singleplex, Cherry Pick1 hits, dose response (AID 588604); type: functional
Sequence of Multidrug resistance protein CDR2 (P78595 whole entry): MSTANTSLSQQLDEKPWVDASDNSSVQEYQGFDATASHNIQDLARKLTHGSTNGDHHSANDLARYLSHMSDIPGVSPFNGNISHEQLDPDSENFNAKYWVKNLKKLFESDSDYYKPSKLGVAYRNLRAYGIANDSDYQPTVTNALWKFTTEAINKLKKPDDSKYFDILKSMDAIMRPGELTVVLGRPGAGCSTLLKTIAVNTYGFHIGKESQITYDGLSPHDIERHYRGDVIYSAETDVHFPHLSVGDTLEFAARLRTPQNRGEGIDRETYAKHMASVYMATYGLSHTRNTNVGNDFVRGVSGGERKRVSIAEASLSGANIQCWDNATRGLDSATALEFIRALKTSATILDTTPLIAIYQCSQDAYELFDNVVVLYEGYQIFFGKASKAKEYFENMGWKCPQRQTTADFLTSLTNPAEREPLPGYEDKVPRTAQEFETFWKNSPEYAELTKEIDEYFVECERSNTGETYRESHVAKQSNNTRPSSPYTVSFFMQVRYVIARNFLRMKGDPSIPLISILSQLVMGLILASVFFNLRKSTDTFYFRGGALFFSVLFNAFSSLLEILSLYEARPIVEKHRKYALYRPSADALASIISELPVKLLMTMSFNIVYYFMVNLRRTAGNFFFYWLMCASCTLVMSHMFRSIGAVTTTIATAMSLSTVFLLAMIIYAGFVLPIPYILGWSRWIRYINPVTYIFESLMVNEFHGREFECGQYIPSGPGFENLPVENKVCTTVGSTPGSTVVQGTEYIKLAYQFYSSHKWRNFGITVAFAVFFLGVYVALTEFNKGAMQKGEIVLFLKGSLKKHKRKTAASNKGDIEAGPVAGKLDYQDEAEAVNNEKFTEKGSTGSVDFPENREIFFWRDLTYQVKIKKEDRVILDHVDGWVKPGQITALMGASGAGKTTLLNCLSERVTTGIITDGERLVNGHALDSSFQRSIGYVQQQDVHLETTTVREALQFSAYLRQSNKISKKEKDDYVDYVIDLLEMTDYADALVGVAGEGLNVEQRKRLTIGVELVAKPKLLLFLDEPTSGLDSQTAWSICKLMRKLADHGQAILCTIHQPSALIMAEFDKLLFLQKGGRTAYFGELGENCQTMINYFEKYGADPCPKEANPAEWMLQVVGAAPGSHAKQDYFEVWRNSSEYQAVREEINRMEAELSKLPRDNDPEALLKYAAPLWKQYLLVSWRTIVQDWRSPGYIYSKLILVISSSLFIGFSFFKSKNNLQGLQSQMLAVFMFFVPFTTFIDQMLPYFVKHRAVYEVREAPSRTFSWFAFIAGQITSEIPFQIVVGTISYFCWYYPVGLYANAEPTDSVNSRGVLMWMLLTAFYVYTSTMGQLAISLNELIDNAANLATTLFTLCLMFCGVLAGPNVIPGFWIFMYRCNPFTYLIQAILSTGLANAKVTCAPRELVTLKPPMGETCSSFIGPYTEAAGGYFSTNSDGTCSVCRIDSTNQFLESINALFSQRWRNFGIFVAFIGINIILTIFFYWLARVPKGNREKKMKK

Genome polyprotein = Genome polyprotein (dengue virus type 2, UniProt P29990); test: flavivirus cap methylation enzyme inhibition – biochemical, confirmation dose response, primary screen (AID 588689); type: functional
Sequence of Genome polyprotein (P29990 2492-3391 limits assumed): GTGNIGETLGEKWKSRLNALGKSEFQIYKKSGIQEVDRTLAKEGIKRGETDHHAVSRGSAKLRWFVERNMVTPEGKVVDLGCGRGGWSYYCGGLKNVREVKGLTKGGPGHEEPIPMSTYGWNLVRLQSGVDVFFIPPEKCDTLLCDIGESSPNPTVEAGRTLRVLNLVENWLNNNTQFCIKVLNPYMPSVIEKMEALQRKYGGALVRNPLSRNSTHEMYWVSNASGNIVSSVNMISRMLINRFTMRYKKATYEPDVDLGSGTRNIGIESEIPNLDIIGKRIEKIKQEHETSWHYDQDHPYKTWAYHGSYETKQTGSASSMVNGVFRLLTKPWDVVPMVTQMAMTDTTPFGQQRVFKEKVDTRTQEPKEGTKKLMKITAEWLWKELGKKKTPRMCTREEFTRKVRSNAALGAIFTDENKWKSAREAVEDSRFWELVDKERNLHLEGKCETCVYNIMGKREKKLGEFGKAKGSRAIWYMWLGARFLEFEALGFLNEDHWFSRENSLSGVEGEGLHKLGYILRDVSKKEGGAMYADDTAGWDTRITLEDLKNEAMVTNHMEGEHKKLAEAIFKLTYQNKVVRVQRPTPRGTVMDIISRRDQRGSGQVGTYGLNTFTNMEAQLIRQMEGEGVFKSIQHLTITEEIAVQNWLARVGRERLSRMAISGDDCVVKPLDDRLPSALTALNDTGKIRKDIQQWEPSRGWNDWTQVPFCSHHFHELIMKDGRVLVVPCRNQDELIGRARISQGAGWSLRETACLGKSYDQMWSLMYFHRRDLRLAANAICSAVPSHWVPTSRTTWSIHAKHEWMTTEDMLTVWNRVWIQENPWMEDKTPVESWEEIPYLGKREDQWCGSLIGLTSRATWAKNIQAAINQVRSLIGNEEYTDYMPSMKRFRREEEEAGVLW

[6] = target: T5, Mitochondrial peptide methionine sulfoxide reductase (Bos taurus, UniProt P54149); test: Absorbance-based biochemical high throughput dose response assay for activators of Methionine sulfoxide reductase A (MsrA).; type: functional
T5 sequence (P54149 whole entry): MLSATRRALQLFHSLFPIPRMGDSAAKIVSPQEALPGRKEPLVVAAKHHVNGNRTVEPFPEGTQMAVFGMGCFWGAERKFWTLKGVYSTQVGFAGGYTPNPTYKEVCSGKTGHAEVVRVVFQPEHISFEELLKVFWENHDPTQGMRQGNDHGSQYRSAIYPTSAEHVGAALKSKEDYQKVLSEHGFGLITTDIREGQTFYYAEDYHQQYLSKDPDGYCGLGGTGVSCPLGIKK

For `O=C1C(Cl)=C(Nc2ccc3cn[nH]c3c2)C(=O)c2ccccc21`, which EC50 [1] is on record?
Its EC50 is 5.42 µM (active).

What about the EC50 (Streptokinase A) of the same compound?
Its EC50 is 6.22 µM (active).

And the IC50 [2]?
The IC50 was 6.25 µM (active).

And the IC50 [3]?
The IC50 was > 66.6 µM (inactive).

And the IC50 (Beta-galactosidase)?
The IC50 was > 66.6 µM (inactive).

What about the AC50 [4] of the same compound?
Its AC50 is 1.65 µM (active).

And the EC50 (Protein RecA)?
The EC50 was 0.955 µM (active).

What about the EC50 [5] of the same compound?
Its EC50 is 40.6 µM (active).

What about the IC50 (Genome polyprotein) of the same compound?
The IC50 was 18.7 µM (active).

What about the EC50 [6] of the same compound?
The EC50 was > 104 µM (inactive).
